Several values for one entry are separate records, joined by “and”; a condition that tells them apart may be missing. Equal values may be shown once. Read-outs that look alike come from different tables or passages of the source.
Columns and labels:
[1] = target: protein kinases (human kinome) (Homo sapiens, UniProt P53671); format: cell-based; conditions: for logFC LIMK2: LIMK2 (P53671), down; for logFC of LIMK2: LIMK2 P53671
[2] = target: protein kinases (human kinome) (Homo sapiens, UniProt Q00534); format: cell-based; conditions: for logFC CDK6: CDK6 (Q00534), direction down; for logFC of CDK6 (Q00534): down
Sequence of protein kinases (human kinome) (Homo sapiens, UniProt Q00534) (Q00534 whole entry): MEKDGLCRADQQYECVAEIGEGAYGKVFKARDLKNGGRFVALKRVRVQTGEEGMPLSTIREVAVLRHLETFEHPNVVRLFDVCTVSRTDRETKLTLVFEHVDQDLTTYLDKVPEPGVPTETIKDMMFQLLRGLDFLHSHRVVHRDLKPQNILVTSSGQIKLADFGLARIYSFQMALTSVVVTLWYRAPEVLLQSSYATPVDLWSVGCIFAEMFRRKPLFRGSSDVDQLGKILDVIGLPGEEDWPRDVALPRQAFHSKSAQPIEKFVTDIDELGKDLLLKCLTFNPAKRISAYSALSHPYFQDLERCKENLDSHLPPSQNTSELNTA

[3] = target: T1, protein kinases (human kinome) (Homo sapiens, UniProt O75385); format: cell-based; conditions: for logFC: ULK1 (O75385) protein abundance, degrader vs DMSO, down; for logFC ULK1: ULK1 O75385
T1 sequence (O75385 1-1050): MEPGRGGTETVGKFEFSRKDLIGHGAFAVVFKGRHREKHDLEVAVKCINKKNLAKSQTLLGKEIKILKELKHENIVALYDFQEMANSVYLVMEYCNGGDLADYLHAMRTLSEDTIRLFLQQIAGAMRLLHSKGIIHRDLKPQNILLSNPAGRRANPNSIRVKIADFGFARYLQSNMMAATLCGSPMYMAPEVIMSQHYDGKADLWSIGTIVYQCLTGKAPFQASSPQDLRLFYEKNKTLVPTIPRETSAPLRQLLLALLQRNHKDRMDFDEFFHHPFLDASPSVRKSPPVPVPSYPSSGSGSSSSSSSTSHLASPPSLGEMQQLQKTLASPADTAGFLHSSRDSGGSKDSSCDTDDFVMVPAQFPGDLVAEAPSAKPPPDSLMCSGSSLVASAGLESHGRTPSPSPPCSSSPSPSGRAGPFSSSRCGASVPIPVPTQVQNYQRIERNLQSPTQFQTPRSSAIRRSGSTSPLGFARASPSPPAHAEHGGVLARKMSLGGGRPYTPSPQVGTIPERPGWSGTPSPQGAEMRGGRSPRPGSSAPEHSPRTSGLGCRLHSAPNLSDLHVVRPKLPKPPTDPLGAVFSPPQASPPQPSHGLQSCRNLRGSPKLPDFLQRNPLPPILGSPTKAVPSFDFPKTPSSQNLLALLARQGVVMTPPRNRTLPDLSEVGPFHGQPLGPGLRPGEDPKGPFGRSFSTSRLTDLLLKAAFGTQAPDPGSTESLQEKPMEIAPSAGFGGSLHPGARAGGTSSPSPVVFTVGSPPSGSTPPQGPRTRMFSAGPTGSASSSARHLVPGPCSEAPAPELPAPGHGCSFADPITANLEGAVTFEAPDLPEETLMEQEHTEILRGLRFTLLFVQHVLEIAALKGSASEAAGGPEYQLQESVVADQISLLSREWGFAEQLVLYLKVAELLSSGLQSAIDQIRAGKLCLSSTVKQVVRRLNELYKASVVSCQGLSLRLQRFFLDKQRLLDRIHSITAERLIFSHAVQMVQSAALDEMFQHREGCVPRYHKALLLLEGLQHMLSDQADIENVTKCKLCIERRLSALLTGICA

[4] = target: T2, extended human kinome (kinase-like proteins) (Homo sapiens, UniProt Q53R41); assay: Whole cell quantitative proteomics: extended kinome hits; conditions: experiment wp160, 1 hr
T2 sequence (Q53R41 1-847): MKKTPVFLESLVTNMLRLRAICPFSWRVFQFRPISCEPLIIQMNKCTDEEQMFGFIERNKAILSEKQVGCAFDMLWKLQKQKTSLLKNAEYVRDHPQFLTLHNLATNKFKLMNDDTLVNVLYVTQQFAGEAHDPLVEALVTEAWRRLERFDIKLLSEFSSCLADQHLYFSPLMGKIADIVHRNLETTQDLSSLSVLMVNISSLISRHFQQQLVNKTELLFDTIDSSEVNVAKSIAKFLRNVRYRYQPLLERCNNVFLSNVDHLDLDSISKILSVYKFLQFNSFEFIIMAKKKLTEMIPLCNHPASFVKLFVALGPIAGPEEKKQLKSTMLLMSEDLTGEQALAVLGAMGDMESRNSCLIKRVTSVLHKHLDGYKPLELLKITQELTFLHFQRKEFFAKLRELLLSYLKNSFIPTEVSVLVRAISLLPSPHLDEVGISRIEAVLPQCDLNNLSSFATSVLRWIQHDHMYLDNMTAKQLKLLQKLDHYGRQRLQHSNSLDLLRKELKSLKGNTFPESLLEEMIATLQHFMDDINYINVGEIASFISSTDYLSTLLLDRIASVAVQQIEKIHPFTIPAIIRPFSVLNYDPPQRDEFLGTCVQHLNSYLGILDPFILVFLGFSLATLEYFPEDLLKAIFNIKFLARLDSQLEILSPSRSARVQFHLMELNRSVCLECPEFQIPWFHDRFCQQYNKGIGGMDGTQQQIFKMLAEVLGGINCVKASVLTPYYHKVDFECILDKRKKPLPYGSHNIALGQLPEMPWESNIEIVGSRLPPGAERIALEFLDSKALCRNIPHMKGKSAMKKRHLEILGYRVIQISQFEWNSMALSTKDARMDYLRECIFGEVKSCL

[5] = target: extended human kinome (kinase-like proteins) (Homo sapiens, UniProt Q9UIJ7); assay: as above; conditions: experiment wp160, 1 hr
Sequence of extended human kinome (kinase-like proteins) (Homo sapiens, UniProt Q9UIJ7) (Q9UIJ7 whole entry): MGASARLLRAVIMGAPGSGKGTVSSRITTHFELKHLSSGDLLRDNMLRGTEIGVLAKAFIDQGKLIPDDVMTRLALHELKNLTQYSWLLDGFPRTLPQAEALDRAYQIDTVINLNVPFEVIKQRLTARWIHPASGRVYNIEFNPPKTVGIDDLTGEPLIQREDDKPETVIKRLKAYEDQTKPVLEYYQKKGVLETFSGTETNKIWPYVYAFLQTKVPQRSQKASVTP

[6] = target: extended human kinome (kinase-like proteins) (Homo sapiens, UniProt Q16875); assay: as above; conditions: Accession Q16875, experiment wp133
Sequence of extended human kinome (kinase-like proteins) (Homo sapiens, UniProt Q16875) (Q16875 whole entry): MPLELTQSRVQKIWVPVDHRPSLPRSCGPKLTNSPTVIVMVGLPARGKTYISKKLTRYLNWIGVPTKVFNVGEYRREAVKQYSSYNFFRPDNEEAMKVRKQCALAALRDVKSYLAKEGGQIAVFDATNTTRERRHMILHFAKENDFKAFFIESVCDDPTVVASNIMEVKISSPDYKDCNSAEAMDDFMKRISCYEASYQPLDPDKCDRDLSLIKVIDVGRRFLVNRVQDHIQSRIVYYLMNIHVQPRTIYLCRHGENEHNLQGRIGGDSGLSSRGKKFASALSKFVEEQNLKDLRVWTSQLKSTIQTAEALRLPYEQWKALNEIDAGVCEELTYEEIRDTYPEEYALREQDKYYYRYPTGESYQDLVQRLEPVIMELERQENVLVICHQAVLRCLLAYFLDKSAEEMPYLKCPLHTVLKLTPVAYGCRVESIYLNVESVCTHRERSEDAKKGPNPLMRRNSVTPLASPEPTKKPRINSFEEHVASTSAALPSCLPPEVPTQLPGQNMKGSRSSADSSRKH

Sequence of protein kinases (human kinome) (Homo sapiens, UniProt P53671) (P53671 whole entry): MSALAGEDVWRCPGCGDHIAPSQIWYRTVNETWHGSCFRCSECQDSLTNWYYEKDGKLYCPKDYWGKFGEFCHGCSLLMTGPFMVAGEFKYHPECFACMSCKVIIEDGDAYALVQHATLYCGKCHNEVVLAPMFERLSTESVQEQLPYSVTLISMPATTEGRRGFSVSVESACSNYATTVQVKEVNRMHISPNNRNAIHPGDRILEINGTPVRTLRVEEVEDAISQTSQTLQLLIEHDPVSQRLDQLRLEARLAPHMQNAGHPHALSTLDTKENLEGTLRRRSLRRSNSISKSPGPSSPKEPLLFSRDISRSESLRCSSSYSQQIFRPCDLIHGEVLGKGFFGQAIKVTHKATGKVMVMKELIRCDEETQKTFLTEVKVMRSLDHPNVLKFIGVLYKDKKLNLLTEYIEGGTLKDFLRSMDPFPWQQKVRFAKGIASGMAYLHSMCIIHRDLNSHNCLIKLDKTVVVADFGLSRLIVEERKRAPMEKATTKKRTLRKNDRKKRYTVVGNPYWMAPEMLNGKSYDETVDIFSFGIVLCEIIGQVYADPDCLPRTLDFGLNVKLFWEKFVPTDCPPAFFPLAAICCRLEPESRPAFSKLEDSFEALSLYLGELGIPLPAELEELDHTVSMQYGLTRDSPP

Compound: CC(C)S(=O)(=O)c1ccccc1Nc1nc(Nc2ccc(N3CCN(CCOCCNC(=O)CNc4cccc5c4C(=O)N(C4CCC(=O)NC4=O)C5=O)CC3)cc2)ncc1Cl (centres unmarked) [SK.3.91]
- logFC LIMK2 ([1]; experiment wp016, 1 uM): −1.441
- logFC LIMK2 ([1]; experiment wp016): −1.061
- logFC LIMK2 ([1]; experiment wp103): −1.431
- logFC LIMK2 ([1]; experiment wp107): −1.878
- logFC LIMK2 ([1]; experiment wp114): −0.8414
- logFC LIMK2 ([1]; experiment wp133, 2 hr): −0.7575
- logFC LIMK2 ([1]; experiment wp133, 4 hr): −1.342
- logFC LIMK2 ([1]; experiment wp172): −0.8984
- logFC of LIMK2 ([1]; experiment wp016): −1.061
- logFC of LIMK2 ([1]; experiment wp016, 1 uM): −1.441
- logFC of LIMK2 ([1]; experiment wp103): −1.431
- logFC of LIMK2 ([1]; experiment wp107): −1.878
- logFC of LIMK2 ([1]; experiment wp114): −0.8414
- logFC of LIMK2 ([1]; experiment wp133, 2 hr): −0.7575
- logFC of LIMK2 ([1]; experiment wp133, 4 hr): −1.342
- logFC of LIMK2 ([1]; experiment wp172): −0.8984
- logFC CDK6 ([2]; experiment wp016): −0.8832
- logFC CDK6 ([2]; experiment wp016, 1 uM): −1.149
- logFC CDK6 ([2]; experiment wp103): −0.9349
- logFC CDK6 ([2]; experiment wp105): −0.5421
- logFC CDK6 ([2]; experiment wp107): −1.012
- logFC CDK6 ([2]; experiment wp133, 1 hr): −0.3542
- logFC CDK6 ([2]; experiment wp133, 2 hr): −0.6404
- logFC CDK6 ([2]; experiment wp133, 4 hr): −1.05
- logFC CDK6 ([2]; experiment wp160, 1 hr): −0.3255
- logFC CDK6 ([2]; experiment wp160, 2 hr): −0.5948
- logFC CDK6 ([2]; experiment wp160, 4 hr): −1.133
- logFC of CDK6 (Q00534) ([2]; Experiment wp016, 1 uM): −1.149
- logFC of CDK6 (Q00534) ([2]; Experiment wp016): −0.8832
- logFC of CDK6 (Q00534) ([2]; Experiment wp103): −0.9349
- logFC of CDK6 (Q00534) ([2]; Experiment wp105): −0.5421
- logFC of CDK6 (Q00534) ([2]; Experiment wp107): −1.012
- logFC of CDK6 (Q00534) ([2]; Experiment wp133, 1 hr): −0.3542
- logFC of CDK6 (Q00534) ([2]; Experiment wp133, 2 hr): −0.6404
- logFC of CDK6 (Q00534) ([2]; Experiment wp133, 4 hr): −1.05
- logFC of CDK6 (Q00534) ([2]; Experiment wp160, 1 hr): −0.3255
- logFC of CDK6 (Q00534) ([2]; Experiment wp160, 2 hr): −0.5948
- logFC of CDK6 (Q00534) ([2]; Experiment wp160, 4 hr): −1.133
- logFC ([3]; 1 hr): −1.472 and −1.466
- logFC ([3]; 2 hr): −2.779 and −2.583
- logFC ULK1 ([3]; experiment wp103): −1.332
- logFC ULK1 ([3]; experiment wp105): −1.712
- logFC ULK1 ([3]; experiment wp107): −1.162
- logFC ULK1 ([3]; experiment wp133, 1 hr): −1.472
- logFC ULK1 ([3]; experiment wp133, 2 hr): −2.779
- logFC ULK1 ([3]; experiment wp133, 4 hr): −3.572
- logFC ULK1 ([3]; experiment wp160, 1 hr): −1.466
- logFC ULK1 ([3]; experiment wp160, 2 hr): −2.583
- logFC ULK1 ([3]; experiment wp160, 4 hr): −3.085
- logFC FASTKD1 (Q53R41) [4]: −0.8675
- logFC AK3 (Q9UIJ7-1) [5]: −0.7434
- logFC PFKFB3 ([6]; 2 hr): −0.3539
- logFC PFKFB3 ([6]; 4 hr): −0.6035

— patent publication US20240269139A1, “COMPOUNDS FOR TARGETED PROTEIN DEGRADATION OF KINASES” (DANA-FARBER CANCER INSTITUTE, INC., priority 2020, published 2024)
